# Assay results as given in patent publication US12378220B2, “WNT signaling pathway inhibitors for treatments of disease” (University of Maryland, Baltimore, priority 2016, dated 2025).
# Entries after “also recorded” stand apart in the source; their conditions may differ. Where two headings read alike, the source gives them in different places.
# Key:
# [1] = test system: WiDr cells; experiment: quantitative real-time RT-PCR of Wnt regulated genes; type: cell-based, human
# Experimental: (§1) Quantitative Real-time RT-PCR. The total RNA extracted from the cells using TRIzol (Invitrogen) and 2 μg was reverse transcribed in a 20-μl volume system (QuantiTect Reverse Transcription Kit (Qiagen)) for quantitative PCR assays. SYBR green quantitative real-time PCR analyses were carried out using gene-specific primers (working concentration at 250 nM) in StepOnePlus real time PCR system (Applied Biosystems, AB), using the housekeeping gene GAPDH as an internal control. The PCR running procedure was as follows: 4 min denaturing at 95° C., followed by 40 cycles of 30 seconds of denaturing at 95° C. and then annealing and extension at 60° C. for 1 min.
# [2] = test system: A549 cells; experiment: as above; type: cell-based, human
# Experimental: as §1
# [3] = test system: SW620 cells; experiment: as above; type: cell-based, human
# Experimental: as §1
# [4] = test system: Wnt/β-catenin pathway; experiment: dual-luciferase TCF/LEF reporter assay, LiCl-activated, HEK293 cells; type: cell-based; details: Homo sapiens; for activity at 1 µM: HEK293, 24 h, At 1 μM concentration, remaining Wnt signaling activity, read-out: RLU % (Relative Light Units in reporter gene assays); for IC50: HEK293
# Experimental: Lithium chloride (LiCl), which has been previously established as an activator of the Wnt/β-catenin pathway through its direct and indirect effects on GSK3β was used for pathway activation. The inhibition of the Wnt/β-catenin pathway by a compound may be determined after its incubation with cells for 24 hours.
# The assay provided herein is a dual-luciferase assay to measure Wnt/β-catenin pathway activation using a TCF/LEF responsive reporter construct similar to that described previously (Thorne et al., 2010).
# [5] = test system: SW620 cells; experiment: cell cycle analysis by flow cytometry; type: cell-based, human; details: unsynchronized and synchronized, 24 h
# Experimental: SW620 cells were treated with YW2013 at various concentrations (0, 1, 10 μM) to determine the effect of YW2013 on the SW620 cell cycle in an unsynchronized assay (FIG. 27A) and an assay where cells were treated with FBS free medium for 24 hours up to synchronization before adding YW2013 (FIG. 27B).
# Cell Cycle Analysis. SW620 cells were plated in 6-well plates for 24 h, and the medium was replaced with medium containing 0, 1, 10, μM/L of YW2013. After incubation for 24 h, the cells were harvested by trypsinization and then fixed with 70% 4° C. ethanol. Intracellular DNA was stained with 50 ng/ml propidium iodide in the dark for 30 min at room temperature, and the percentages of different phase of cells were determined by flow cytometry (BD FACScan; BD Biosciences).
# [6] = test system: Madin-Darby Canine Kidney (MDCK) epithelial cell monolayer; experiment: permeability across MDCK monolayer on transwell plates; type: in vitro ADME; details: data not shown
# [7] = test system: WiDr, SW620, HT29, HEK_LTV, and T84 cell lines; experiment: cell proliferation and growth inhibition assay (CCK-8), cell line panel; type: cell-based, human; details: 72 h, FIG. 12
# Experimental: Cell Proliferation and Growth Inhibition Assay. HT-29, HCT-116, WiDr, SW620, SW480, T84, A549, MCF-7, HepG2, Hela cells were cultured in respective growth medium. Cells of log phase were used. 3000-5000 cells/well were seeded in 96-well plates with a 100 μL volume. After 24 h, Compounds were dissolved to […] with DMSO, and a 3-fold serial dilution of the compounds from 5×10^−5 M to […] was performed. 2 μL of compound solution was added to 998 μL of growth medium, the mixture was vortexed sufficiently. 100 μL of the mixture was correspondingly added to the 96-well plate. 2 μL DMSO instead of compound solution was used as the 0% inhibitor control. After coincubation for 72 h, the old medium was removed and 100 μL of 10% CCK-8 in culture medium was added. 2 h later the plates were read in the microplate reader (Bio-Rad) at 450 nm. The data was calculated using Graph Pad Prism version 5.0. The IC50 were fitted using a nonlinear regression model with a sigmoidal dose response.
# [8] = test system: SW620 cells; experiment: Annexin-V/AAD-7 double-staining apoptosis assay; type: cell-based, human; details: SW620 cells, 0, 3, 10, 30 μM, 48 h
# Experimental: Annexin-V/AAD-7 Double-Staining Assay. SW620 cells were treated with 0, 3, 10, 30 μM/L of YW2013 for 48 h. Then they were harvested and washed with PBS. Apoptotic cells were determined with an FITC Annexin V Apoptosis Detection Kit according to the manufacturer's protocol. Briefly, the cells were washed and subsequently incubated for 15 min at room temperature in the dark in 100 μL of 1× binding buffer containing 2 μL of Annexin V-FITC and 2 μL of AAD-7. After 30 min, apoptosis was analyzed by BD FACSCanto II Flow Cytometer.
# [9] = test system: SW480 cells; experiment: Western blot of Wnt signaling proteins; type: cell-based, human; details: 48 h
# Experimental: Using a Wester Blot, compounds YW2013 and YW2123 were tested in SW480 cells to determine their effect on the expression of Axin-2, β-catenin, and c-myc.
# Western Blot: 1×10^6 Cells of SW480 cells were seeded into 6-well plates overnight. A concentration of 3, 10, 30 μM/L YW2013 and 3, 10 μM/L YW2123 was added after 24 h, medium with 1‰ DMSO was used as the control. Cells were exposed to treatment for 48 h. The dishes was washed twice using precold PBS and 100 μL of RIPA then added. After incubating plates on ice for 15 min, cells were scraped carefully and centrifuged for 10 minutes at 14,000 g at 4° C. immediately. The remaining supernatant and lysates were maintained at −70° C. A Bio-Rad protein assay kit (500-0002) was used to quantitate the cell lysates. The concentration was adjusted to 2 mg/ml. A ratio of 1:1 2× loading buffer was added and the samples were denatured by boiling. Protein samples were separated on 4-15% SDS-polyacrylamide gel (SDS-PAGE) and transferred onto the PVDF membranes (Millipore). Immune complexes were formed by incubation of the proteins with primary antibody β-catenin, c-myc, Axin-2, and GAPDH at 4° C. overnight. A second antibody with horseradish peroxidase (HRP, sigma) conjugated was used then. Blots were developed by enhanced chemiluminescence (Thermo).
# [10] = test system: SW480 cells; experiment: colony formation assay; type: cell-based, human; details: 0-30 μM, 2 weeks
# Experimental: (§2) Colony Formation Assay. HT-29 and SW620, SW480 cells were seeded into 6-well dishes with the medium containing 0, 1, 3, 10, 30 μM/L of YW2013 or YW2044, 500 cells/well. After 2 weeks, cells were fixed with 4% paraformaldehyde solution and stained with 0.5% crystal violet for 1 h at room temperature. The images of colonies were captured by microscopy.
# [11] = test system: SW620 cells; experiment: colony formation assay; type: cell-based, human
# Experimental: as §2
# [12] = test system: SW480 cells; experiment: mitochondrial function and morphology; type: cell-based, human
# Experimental: FIG. 38B illustrates ATP production estimated from the OCR measurement. […] DHE fluorescence intensity was measured by using ImageJ. ˜300 cells were counted in each treatment.
# Mitochondrial function and morphology was determined in SW480 cells treated with YW2065.
# [13] = test system: SW620 xenograft; experiment: SW620 xenograft tumor growth; type: in vivo, nude mice; details: i.p. 10 mg/kg or 50 mg/kg each day, 32 day study, vs vehicle
# Experimental: FIG. 37A illustrates tumor growth measured during the study every other day. FIG. 37B illustrates tumor weight that was measured after mouse euthanization. FIG. 37C illustrates the change in mouse body weight during the study.
# Six-week old nude mice were injected with 2×10^6 SW620 cells subcutaneously. 10 days after inoculation, mice received an i.p. injection of YW2065 at 10 mg/kg or 50 mg/kg or vehicle each day. The tumor growth (FIG. 37A) was measured every other day. The mice were euthanized at day 32, and tumors were weighed (FIG. 37B). Body weight change was monitored during the study (FIG. 37C).
# [14] = test system: HT-29 cells; experiment: colony formation assay; type: cell-based, human; details: 0-30 μM, 2 weeks
# Experimental: as §2
# [15] = metabolic stability, substrate depletion in liver S9 fraction; type: in vitro ADME, mouse; details: 37 degrees, after one hour
# Experimental: (§3) FIGS. 5A and 5B illustrate the metabolic stability of YW1149. S9 fraction from mouse liver tissues (FIG. 5A) and mouse plasma samples (FIG. 5B) were mixed with YW1149 and incubated at 37 degrees, respectively. *P<0.05 as compared to time 0.
# (§4) The metabolic stability of these compounds was then estimated using YW1149 as a prototypical compound, with in vitro substrate depletion in mouse liver tissue S9 fraction as previously described (Jones and Houston, 2004).
# [16] = plasma stability; type: in vitro ADME; details: mouse plasma, 37 degrees
# Experimental: as §3, §4
# [17] = in vivo
# Text: Representative data from each group is shown.
# Blood samples were collected at multiple time points. […] Ultra-performance liquid chromatography system with a triple quadruple detector (UPLC/TQD) was used for compound quantitation.
# [18] = test system: HEK293 cells; experiment: cytotoxicity, Cell Counting Kit-8 colorimetric assay; details: Homo sapiens, HEK293, read-out: anti-proliferation IC50
# Experimental: The cytotoxicity of series of a compound of the invention was measured using a colorimetric assay, Cell Counting Kit-8 (Sigma) in HEK293 cells.
# [19] = test system: HepG2 cells; experiment: expression of Wnt pathway proteins; type: cell-based, human; details: FIG. 3
# Experimental: HepG2 cells were treated by YW1149 (vehicle, 0.1, 1 μM).
# [20] = test system: HepG2 cells; experiment: glucose production, G6P expression and AMPK phosphorylation; type: cell-based, human
# [21] = test system: primary hepatocytes; experiment: glucose production in primary hepatocytes; type: cell-based
# Text: In light of this evidence, a class of triazole-based inhibitors were synthesized and tested, as described herein.
# [22] = Table 3, values in nM, read-out: IC50
# [23] = HepG2, 0.1 μM pyrvinium, 10 μM YW1149
structure (smiles),measurement,setting,value
"Cc1ccccc1-n1ncc(C(=O)Nc2ccc3ccccc3n2)c1C [YW2013, 5-Methyl-N-(quinolin-2-yl)-1-(o-tolyl)-1H-pyrazole-4-carboxamide]",mRNA expression of Wnt regulated genes (Axin-2 and/or cyclin D1),[1],reduced mRNA expression
same,mRNA expression of Wnt regulated genes (Axin-2 and/or cyclin D1),[2],reduced mRNA expression
same,mRNA expression of Wnt regulated genes (Axin-2 and/or cyclin D1),[3],reduced mRNA expression
same,activity at 1 µM,[4],1.9%
same,IC50,[4]; [22],9.6 nM
same,effect on cell cycle,[5],cell cycle arrest in the G1 and S phases
same,apical-to-basolateral and basolateral-to-apical flux,[6],significant apical-to-basolateral and basolateral-to-apical flux
same,growth inhibitory activity,[7],micromolar growth inhibitory activity
same,apoptosis,[8],induced apoptosis in SW620 cells in a dose dependent manner
same,"expression of Axin-2, β-catenin, and c-myc",[9],visibly reduced
same,colony formation,[10],dose dependent reduction
same,colony formation,"[11]; 0-30 μM, 2 weeks",dose dependent reduction
same,reduction in colony formation in combination,[11]; combined with Gefitinib,markedly increased when combined with Gefitinib
"Cc1c(C(=O)Nc2ccc3ccccc3n2)cnn1-c1ccccc1Br [YW2065, 1-(2-Bromophenyl)-5-methyl-N-(quinolin-2-yl)-1H-pyrazole-4-carboxamide]",ATP production (estimated from OCR),[12],inhibited ATP production as a function of dosage
same,ROS generation (DHE staining),[12],increased ROS generation
same,oxygen consumption rate (OCR),[12],reduced oxygen consumption rate
same,mitochondrial morphology,"[12]; 10 μM, 4 hours",caused short and punctuated mitochondria
same,tumor growth,[13],markedly inhibited tumor growth; also recorded: inhibited SW620 xenograft growth
"CCc1ccccc1-n1ncc(C(=O)Nc2ccc3ccccc3n2)c1C [YW2044, 1-(2-Ethylphenyl)-5-methyl-N-(quinolin-2-yl)-1H-pyrazole-4-carboxamide]",mRNA expression of Wnt regulated genes (Axin-2 and/or cyclin D1),[3],reduce mRNA expression
same,growth inhibitory activity,[7],micromolar growth inhibitory activity
same,Axin-2 expression,[9],noticeable effect
same,colony formation,[14],dose dependent reduction
"COc1ccccc1-n1nnc(C(=O)Nc2ccc3ccccc3n2)c1C [YW1149, 1-(2-Methoxyphenyl)-5-methyl-N-(quinolin-2-yl)-1H-1,2,3-triazole-4-carboxamide]",activity at 1 µM,[4],5%
same,IC50,"[4]; FIG. 1, cellular luciferase gene reporter assay, read-out: IC50, Wnt/β-catenin pathway inhibition",74 nM
same,IC50,[4]; [22],88 nM
same,metabolism in liver S9 fraction,[15],Only minor metabolism was observed after one hour
same,stability in plasma,[16],stable in plasma for up to eight hours
same,bioavailability,"[17]; C57BL/6, mouse",75%
same,intravenous half-life,"[17]; mouse, iv, 10 mg/kg",one
same,IC50,[18],> 100000 nM
same,Axin protein expression,[19],increased
same,β-catenin and target gene c-Myc protein,[19],attenuation
same,expression of glucose 6-phosphatase (G6P),[20]; [23],significantly suppress
same,glucose production,[20]; [23],significantly suppress
same,phosphorylation of AMPK,[20]; HepG2 cells,increase phosphorylation
same,glucose production,[21],reduces glucose production
